± gives the expanded uncertainty stated by the source.
Conditions: Liquid, Frequency=8 MHz, Pulse-echo method

CC(C)O [propan-2-ol]
speed of sound (253.15 K, 99 kPa): 1301 ± 0.67 m/s
speed of sound (253.15 K, 5138 kPa): 1328.8 ± 0.68 m/s
speed of sound (253.15 K, 10106 kPa): 1354.9 ± 0.69 m/s
speed of sound (253.15 K, 15136 kPa): 1380 ± 0.7 m/s
speed of sound (253.15 K, 20143 kPa): 1404 ± 0.71 m/s
speed of sound (253.15 K, 25229 kPa): 1427.5 ± 0.72 m/s
speed of sound (253.15 K, 30036 kPa): 1448.9 ± 0.72 m/s
speed of sound (273.15 K, 100 kPa): 1227.9 ± 0.64 m/s
speed of sound (273.15 K, 5275 kPa): 1258.8 ± 0.65 m/s
speed of sound (273.15 K, 10173 kPa): 1286.4 ± 0.66 m/s
speed of sound (273.15 K, 15164 kPa): 1313.3 ± 0.67 m/s
speed of sound (273.15 K, 20289 kPa): 1339.6 ± 0.68 m/s
speed of sound (273.15 K, 25102 kPa): 1363.3 ± 0.69 m/s
speed of sound (273.15 K, 30264 kPa): 1387.7 ± 0.7 m/s
speed of sound (293.15 K, 100 kPa): 1157.4 ± 0.61 m/s
speed of sound (293.15 K, 5085 kPa): 1189.7 ± 0.63 m/s
speed of sound (293.15 K, 10183 kPa): 1220.8 ± 0.64 m/s
speed of sound (293.15 K, 15273 kPa): 1250.2 ± 0.65 m/s
speed of sound (293.15 K, 20239 kPa): 1277.4 ± 0.66 m/s
speed of sound (293.15 K, 25220 kPa): 1303.6 ± 0.67 m/s
speed of sound (293.15 K, 30278 kPa): 1328.9 ± 0.68 m/s
speed of sound (313.15 K, 100 kPa): 1087.2 ± 0.59 m/s
speed of sound (313.15 K, 5177 kPa): 1123.1 ± 0.6 m/s
speed of sound (313.15 K, 10104 kPa): 1155.7 ± 0.61 m/s
speed of sound (313.15 K, 15187 kPa): 1187.5 ± 0.63 m/s
speed of sound (313.15 K, 20126 kPa): 1216.6 ± 0.64 m/s
speed of sound (313.15 K, 25138 kPa): 1244.7 ± 0.65 m/s
speed of sound (313.15 K, 30110 kPa): 1271.1 ± 0.66 m/s
speed of sound (333.15 K, 100 kPa): 1016 ± 0.56 m/s
speed of sound (333.15 K, 5048 kPa): 1054.5 ± 0.58 m/s
speed of sound (333.15 K, 10038 kPa): 1090.6 ± 0.59 m/s
speed of sound (333.15 K, 15065 kPa): 1124.6 ± 0.6 m/s
speed of sound (333.15 K, 20102 kPa): 1156.5 ± 0.61 m/s
speed of sound (333.15 K, 25093 kPa): 1186.4 ± 0.62 m/s
speed of sound (333.15 K, 30014 kPa): 1214.4 ± 0.64 m/s
speed of sound (353.15 K, 100 kPa): 940.5 ± 0.53 m/s
speed of sound (353.15 K, 5080 kPa): 983.88 ± 0.55 m/s
speed of sound (353.15 K, 10091 kPa): 1023.9 ± 0.56 m/s
speed of sound (353.15 K, 15114 kPa): 1060.8 ± 0.58 m/s
speed of sound (353.15 K, 20132 kPa): 1095.3 ± 0.59 m/s
speed of sound (353.15 K, 25164 kPa): 1127.6 ± 0.6 m/s
speed of sound (353.15 K, 30380 kPa): 1159.2 ± 0.61 m/s

CC(O)CO (configuration not stated) [1,2-propanediol]
speed of sound (303.15 K, 99 kPa): 1494.4 ± 0.75 m/s
speed of sound (303.15 K, 5091 kPa): 1513.5 ± 0.75 m/s
speed of sound (303.15 K, 10060 kPa): 1532 ± 0.76 m/s
speed of sound (303.15 K, 15098 kPa): 1550.2 ± 0.77 m/s
speed of sound (303.15 K, 20084 kPa): 1567.7 ± 0.78 m/s
speed of sound (303.15 K, 25068 kPa): 1584.7 ± 0.78 m/s
speed of sound (303.15 K, 30167 kPa): 1601.6 ± 0.79 m/s
speed of sound (313.15 K, 99 kPa): 1465.9 ± 0.74 m/s
speed of sound (313.15 K, 5014 kPa): 1485.5 ± 0.74 m/s
speed of sound (313.15 K, 10053 kPa): 1504.8 ± 0.75 m/s
speed of sound (313.15 K, 15011 kPa): 1523.2 ± 0.76 m/s
speed of sound (313.15 K, 20095 kPa): 1541.5 ± 0.77 m/s
speed of sound (313.15 K, 25202 kPa): 1559.4 ± 0.77 m/s
speed of sound (313.15 K, 30222 kPa): 1576.5 ± 0.78 m/s
speed of sound (333.15 K, 100 kPa): 1408.9 ± 0.71 m/s
speed of sound (333.15 K, 5039 kPa): 1429.7 ± 0.72 m/s
speed of sound (333.15 K, 10054 kPa): 1450.1 ± 0.73 m/s
speed of sound (333.15 K, 15107 kPa): 1469.8 ± 0.74 m/s
speed of sound (333.15 K, 20131 kPa): 1489 ± 0.74 m/s
speed of sound (333.15 K, 25131 kPa): 1507.4 ± 0.75 m/s
speed of sound (333.15 K, 30024 kPa): 1524.9 ± 0.76 m/s
speed of sound (353.15 K, 99 kPa): 1350.9 ± 0.69 m/s
speed of sound (353.15 K, 5042 kPa): 1373 ± 0.7 m/s
speed of sound (353.15 K, 10055 kPa): 1394.6 ± 0.71 m/s
speed of sound (353.15 K, 15135 kPa): 1415.6 ± 0.72 m/s
speed of sound (353.15 K, 20093 kPa): 1435.5 ± 0.72 m/s
speed of sound (353.15 K, 25086 kPa): 1454.8 ± 0.73 m/s
speed of sound (353.15 K, 30207 kPa): 1474.1 ± 0.74 m/s

CC(C)CO [2-methyl-1-propanol]
speed of sound (253.15 K, 102 kPa): 1347.3 ± 0.68 m/s
speed of sound (253.15 K, 5144 kPa): 1373.7 ± 0.69 m/s
speed of sound (253.15 K, 10257 kPa): 1399.1 ± 0.7 m/s
speed of sound (253.15 K, 15122 kPa): 1422.2 ± 0.71 m/s
speed of sound (253.15 K, 20400 kPa): 1446.6 ± 0.72 m/s
speed of sound (253.15 K, 25315 kPa): 1468 ± 0.73 m/s
speed of sound (253.15 K, 30039 kPa): 1488.7 ± 0.73 m/s
speed of sound (273.15 K, 105 kPa): 1274.2 ± 0.65 m/s
speed of sound (273.15 K, 5154 kPa): 1302.8 ± 0.66 m/s
speed of sound (273.15 K, 10139 kPa): 1329.4 ± 0.67 m/s
speed of sound (273.15 K, 15072 kPa): 1354.7 ± 0.68 m/s
speed of sound (273.15 K, 20215 kPa): 1380 ± 0.69 m/s
speed of sound (273.15 K, 25138 kPa): 1403.2 ± 0.7 m/s
speed of sound (273.15 K, 30242 kPa): 1426.4 ± 0.71 m/s
speed of sound (293.15 K, 102 kPa): 1204.9 ± 0.62 m/s
speed of sound (293.15 K, 5004 kPa): 1234.9 ± 0.64 m/s
speed of sound (293.15 K, 10097 kPa): 1264.2 ± 0.65 m/s
speed of sound (293.15 K, 15140 kPa): 1291.7 ± 0.66 m/s
speed of sound (293.15 K, 20220 kPa): 1318.2 ± 0.67 m/s
speed of sound (293.15 K, 25063 kPa): 1342.5 ± 0.68 m/s
speed of sound (293.15 K, 30100 kPa): 1366.7 ± 0.69 m/s
speed of sound (313.15 K, 104 kPa): 1138.1 ± 0.6 m/s
speed of sound (313.15 K, 5135 kPa): 1171.1 ± 0.61 m/s
speed of sound (313.15 K, 10050 kPa): 1201.4 ± 0.62 m/s
speed of sound (313.15 K, 15190 kPa): 1231.5 ± 0.64 m/s
speed of sound (313.15 K, 20126 kPa): 1259 ± 0.65 m/s
speed of sound (313.15 K, 25019 kPa): 1285.1 ± 0.66 m/s
speed of sound (313.15 K, 30259 kPa): 1311.7 ± 0.67 m/s
speed of sound (333.15 K, 100 kPa): 1071.8 ± 0.57 m/s
speed of sound (333.15 K, 5187 kPa): 1108 ± 0.59 m/s
speed of sound (333.15 K, 10181 kPa): 1141.3 ± 0.6 m/s
speed of sound (333.15 K, 15331 kPa): 1173.6 ± 0.61 m/s
speed of sound (333.15 K, 20135 kPa): 1202 ± 0.62 m/s
speed of sound (333.15 K, 25174 kPa): 1230.4 ± 0.64 m/s
speed of sound (333.15 K, 30144 kPa): 1257 ± 0.65 m/s
speed of sound (353.15 K, 104 kPa): 1004.1 ± 0.55 m/s
speed of sound (353.15 K, 5055 kPa): 1042.8 ± 0.56 m/s
speed of sound (353.15 K, 10093 kPa): 1079.4 ± 0.58 m/s
speed of sound (353.15 K, 15238 kPa): 1114.2 ± 0.59 m/s
speed of sound (353.15 K, 20157 kPa): 1145.4 ± 0.6 m/s
speed of sound (353.15 K, 25111 kPa): 1175.1 ± 0.61 m/s
speed of sound (353.15 K, 30108 kPa): 1203.6 ± 0.62 m/s

— the NIST ThermoML archive (doi:10.1016/j.jct.2016.06.001)
